Laboratory results published in PMC7527816, “Molecular basis for the bifunctional Uba4–Urm1 sulfur‐relay system in tRNA thiolation and ubiquitin‐like conjugation” (The EMBO Journal, 2020).
Numbering of substitutions follows the chain as printed. In names and notes the source's numbering stands.

Assays:
CtUba4-CtUrm1 [1] = target: T1, CtUba4-CtUrm1 (Thermochaetoides thermophila, UniProt G0SC54); experiment: GST pull-down of CtUba4 with GST-CtUrm1 (nucleotide-stabilised complex); assay type: binding; conditions: 1 mM nucleotide, 2 mM MgCl2, pH 6.0, 37 °C
T1 construct: gene uba4; full-length CtUba4 (1-444) plus CtUrm1, both from E. coli, tags TEV-cleaved (GST kept on CtUrm1 in pull-down); with Ubiquitin-related modifier 1

CtUba4 (full length) = target: T2, CtUba4 (full length) (Thermochaetoides thermophila, UniProt G0SC54); experiment: thermal shift assay (SYPRO Orange); assay type: binding; conditions: 1 mM AMP, 2 mM MgCl2, 2 mM DTT, pH 7.5
T2 construct: gene uba4; full length aa 1-444, codon-optimised, E. coli BL21(DE3) pRARE, His6 or His6-GST tag TEV-cleaved, homodimer

CtUba4 AD = target: T3, CtUba4 AD (Thermochaetoides thermophila, UniProt G0SC54); experiment: thermal shift assay (SYPRO Orange); assay type: binding; conditions: 1 mM AMP, 2 mM MgCl2, 2 mM DTT, pH 7.5
T3 construct: gene uba4; adenylation domain aa 1-290, E. coli, His6-GST tag TEV-cleaved, dimer

CtUba4-CtUrm1 [2] = target: T1, CtUba4-CtUrm1; experiment: pyrophosphate release (fluorometric kit); Malachite Green phosphate; assay type: biochemical; conditions: 20 μM ATP, CtUrm1 7.5 μM, 0.5 mM MgCl2, pH 6.0, 37 °C
CtUba4-CtUrm1 [3] = target: T4, CtUba4-CtUrm1 (Thermochaetoides thermophila, UniProt G0SC54, N307A/M308A); experiment: as above; assay type: biochemical; conditions: 20 μM ATP, CtUrm1 7.5 μM, 0.5 mM MgCl2, pH 6.0, 37 °C
T4 construct: gene uba4; full-length CtUba4 (1-444) plus CtUrm1, both from E. coli, tags TEV-cleaved (GST kept on CtUrm1 in pull-down); with Ubiquitin-related modifier 1
T4 sequence (G0SC54 entry or part of it N307A/M308A, one chain of several): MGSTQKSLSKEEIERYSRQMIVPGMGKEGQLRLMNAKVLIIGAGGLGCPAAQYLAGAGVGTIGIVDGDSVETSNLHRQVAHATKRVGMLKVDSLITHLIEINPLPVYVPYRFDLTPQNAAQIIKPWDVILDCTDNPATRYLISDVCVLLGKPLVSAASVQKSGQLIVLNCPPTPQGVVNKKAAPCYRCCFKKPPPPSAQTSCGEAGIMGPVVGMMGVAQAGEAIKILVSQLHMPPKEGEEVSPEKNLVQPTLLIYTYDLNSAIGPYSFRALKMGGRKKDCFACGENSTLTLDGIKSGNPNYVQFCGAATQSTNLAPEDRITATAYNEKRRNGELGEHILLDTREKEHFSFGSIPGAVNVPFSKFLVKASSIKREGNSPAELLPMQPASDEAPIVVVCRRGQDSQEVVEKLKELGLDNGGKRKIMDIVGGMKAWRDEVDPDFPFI

[4] = target: T5, ADlinker 1-321 (with CtUrm1) (Thermochaetoides thermophila, UniProt G0SC54); experiment: as above; assay type: biochemical; conditions: 20 μM ATP, CtUrm1 7.5 μM, 0.5 mM MgCl2, pH 6.0, 37 °C
T5 construct: gene uba4; adenylation domain plus complete linker, aa 1-321, E. coli; assayed with CtUrm1; with Ubiquitin-related modifier 1
T5 sequence (G0SC54 1-321): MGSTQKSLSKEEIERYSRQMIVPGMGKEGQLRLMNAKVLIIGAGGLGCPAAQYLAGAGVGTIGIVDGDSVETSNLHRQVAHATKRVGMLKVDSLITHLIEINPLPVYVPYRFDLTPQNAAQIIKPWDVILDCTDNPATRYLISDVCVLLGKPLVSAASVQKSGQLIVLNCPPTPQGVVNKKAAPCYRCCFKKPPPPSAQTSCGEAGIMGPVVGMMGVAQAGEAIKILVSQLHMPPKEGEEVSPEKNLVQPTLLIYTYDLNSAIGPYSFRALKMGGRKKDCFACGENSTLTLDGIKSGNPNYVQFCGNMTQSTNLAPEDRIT
T5 sequence (G0SE11 1-110 partner): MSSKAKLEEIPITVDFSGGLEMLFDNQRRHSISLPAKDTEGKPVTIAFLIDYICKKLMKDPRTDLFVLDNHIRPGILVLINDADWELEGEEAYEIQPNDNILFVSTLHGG

[5] = target: the molecule itself; experiment: SEC + SEC-MALS; SEC profiles and static light scattering (RALS/LALS) after Superdex 75 10/300 GL; 1 mg/ml; 20 mM Tris pH 7.5, 150 mM NaCl, 1 mM DTT
[6] = target: the molecule itself; experiment: crystal structure; apo full-length CtUba4, no nucleotide; 50 mM HEPES pH 6.9-7.0, PEG 4000, 21°C; 2.2 Å
[7] = target: the molecule itself; experiment: crystal structure; CtUba4 C202K, CtUrm1 and ATP (1.00:1.25:2.25) incubated in 100 mM MES pH 6.0, 100 mM NaCl, 2 mM MgCl2 at 37°C for 30 min, complex isolated on Superdex 200 Increase; crystals in 0.1 M HEPES pH 7.5, 20% PEG 3350; 3.15 Å

Molecule: Nc1ncnc2c1ncn2[C@@H]1O[C@H](COP(=O)(O)OP(=O)(O)NP(=O)(O)O)[C@@H](O)[C@H]1O [AMP-PNP]
- GST pull-down of CtUba4 with GST-CtUrm1 (nucleotide-stabilised complex) (CtUba4-CtUrm1 [1]): complex is stabilized most efficiently in the presence of ATP and AMP‐PNP

Molecule: Nc1ncnc2c1ncn2[C@@H]1O[C@H](COP(=O)(O)O)[C@@H](O)[C@H]1O [AMP]
- melting temperature (CtUba4 (full length)): AMP increased the thermal stability of full‐length Uba4 and the AD alone
- melting temperature (CtUba4 AD): AMP increased the thermal stability of full‐length Uba4 and the AD alone

Molecule: Nc1ncnc2c1ncn2[C@@H]1O[C@H](COP(=O)(O)OP(=O)(O)OP(=O)(O)O)[C@@H](O)[C@H]1O [ATP]
- pyrophosphate release (fluorometric kit); Malachite Green phosphate (CtUba4-CtUrm1 [2]): ATP hydrolysis capacity of CtUba4 WT and mutants in the presence of CtUrm1
- pyrophosphate release (fluorometric kit); Malachite Green phosphate (CtUba4-CtUrm1 [3]): mutations of the linker residues Asn307 and Met308
- pyrophosphate release (fluorometric kit); Malachite Green phosphate [4]: it stimulates the ATP hydrolysis activity of the AD in the presence of Urm1

B1: CtUba4 adenylation domain (1-290) (domain or fragment, Chaetomium thermophilum, UniProt G0SC54 1-290, looked up)
chain: MGSTQKSLSKEEIERYSRQMIVPGMGKEGQLRLMNAKVLIIGAGGLGCPAAQYLAGAGVGTIGIVDGDSVETSNLHRQVAHATKRVGMLKVDSLITHLIEINPLPVYVPYRFDLTPQNAAQIIKPWDVILDCTDNPATRYLISDVCVLLGKPLVSAASVQKSGQLIVLNCPPTPQGVVNKKAAPCYRCCFKKPPPPSAQTSCGEAGIMGPVVGMMGVAQAGEAIKILVSQLHMPPKEGEEVSPEKNLVQPTLLIYTYDLNSAIGPYSFRALKMGGRKKDCFACGENSTLT
notes: Uba4 of Chaetomium thermophilum, UniProt G0SC54, adenylation domain residues 1-290; source: E. coli BL21(DE3) pRARE, purified (Ni-NTA, TEV cleavage, SEC); not shown: His6, N-terminal, cleaved; GST, N-terminal, cleaved
- stoichiometry N [5]: 2

B2: CtUba4 rhodanese-like domain (319-444) (domain or fragment, Chaetomium thermophilum, UniProt G0SC54 319-444, looked up)
chain: RITATAYNEKRRNGELGEHILLDTREKEHFSFGSIPGAVNVPFSKFLVKASSIKREGNSPAELLPMQPASDEAPIVVVCRRGQDSQEVVEKLKELGLDNGGKRKIMDIVGGMKAWRDEVDPDFPFI
notes: Uba4 of Chaetomium thermophilum, UniProt G0SC54, rhodanese-like domain residues 319-444; also called CtUba4 RHD; RHD; source: E. coli BL21(DE3) pRARE, purified (Ni-NTA, TEV cleavage, SEC Superdex 75); not shown: His6, N-terminal, cleaved; GST, N-terminal, cleaved
- stoichiometry N [5]: 2

B3: Chaetomium thermophilum Uba4 (ubiquitin-like protein activator 4), full length, wild type (enzyme, UniProt G0SC54 1-444, looked up)
chain: MGSTQKSLSKEEIERYSRQMIVPGMGKEGQLRLMNAKVLIIGAGGLGCPAAQYLAGAGVGTIGIVDGDSVETSNLHRQVAHATKRVGMLKVDSLITHLIEINPLPVYVPYRFDLTPQNAAQIIKPWDVILDCTDNPATRYLISDVCVLLGKPLVSAASVQKSGQLIVLNCPPTPQGVVNKKAAPCYRCCFKKPPPPSAQTSCGEAGIMGPVVGMMGVAQAGEAIKILVSQLHMPPKEGEEVSPEKNLVQPTLLIYTYDLNSAIGPYSFRALKMGGRKKDCFACGENSTLTLDGIKSGNPNYVQFCGNMTQSTNLAPEDRITATAYNEKRRNGELGEHILLDTREKEHFSFGSIPGAVNVPFSKFLVKASSIKREGNSPAELLPMQPASDEAPIVVVCRRGQDSQEVVEKLKELGLDNGGKRKIMDIVGGMKAWRDEVDPDFPFI
notes: Uba4 of Chaetomium thermophilum, UniProt G0SC54, full length aa 1-444; Expressed from pETM30 (N-terminal His6 and GST) and pETM11 (N-terminal His6); tags cleaved with TEV; Codon-optimised gene; also called CtUba4; CtUba4 FL; source: E. coli BL21(DE3) pRARE, purified (Ni-NTA, TEV cleavage, second Ni-NTA, SEC Superdex 200); not shown: His6, N-terminal, cleaved
- stoichiometry N [6]: 2

B4: CtUba4 C202K, full length (enzyme, Chaetomium thermophilum, UniProt G0SC54 1-444, looked up)
chain: B3 chain with C202K
notes: Uba4 of Chaetomium thermophilum, UniProt G0SC54, full length aa 1-444 with C202K; With Urm1 and ATP the epsilon-amino group of Lys202 forms a non-hydrolysable iso-peptide bond with Gly111 of Urm1; The RHD is present in the crystals but has no density; source: E. coli BL21(DE3) pRARE, purified (Ni-NTA, TEV cleavage, SEC Superdex 200); not shown: His6, N-terminal, cleaved
- stoichiometry N [7]: 2
